# Test results taken from the supplement of paper PMC10307832.
# Tests used:
# Experiment in all cases: relative viability (nuclei count vs DMSO), 5 days (fraction); higher = more cells survive
# [1] = tested on: 201T
# In short: (§1)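 Lung cancer cell lines were pin-tool dosed in 1536-well plates on the day after seeding, with either a lone drug or a fixed anchor-drug dose plus five library-drug doses (not always all listed) in √10 steps. Nuclei were counted on 4× images after 5 days. Relative viability is the ratio of treated-well to vehicle-well nuclei counts, with each value a median of duplicate plates.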
# [2] = tested on: COR-L23
# In short: as §1
# [3] = tested on: EPLC-272H
# In short: as §1
# [4] = tested on: H3255
# In short: as §1
# [5] = tested on: HCC-15
# In short: as §1
# [6] = tested on: LOU-NH91
# In short: as §1
# [7] = tested on: NCI-H1650
# In short: as §1
# [8] = tested on: NCI-H1734
# In short: as §1
# [9] = tested on: NCI-H1793
# In short: as §1
# [10] = tested on: NCI-H2023
# In short: as §1
# [11] = tested on: NCI-H2170
# In short: as §1
# [12] = tested on: NCI-H2347
# In short: as §1
# [13] = tested on: NCI-H2405
# In short: as §1
# [14] = tested on: NCI-H3122
# In short: as §1
# [15] = tested on: NCI-H322M
# In short: as §1
# [16] = tested on: NCI-H441
# In short: as §1
# [17] = tested on: NCI-H520
# In short: as §1
# [18] = tested on: NCI-H647
# In short: as §1
# [19] = tested on: PC-14
# In short: as §1
# [20] = tested on: SW 900
# In short: as §1
# [21] = tested on: UMC-11
# In short: as §1
structure (smiles),measurement,setting,value
O=c1cc(N2CCOCC2)oc2c(-c3cccc4c3sc3ccccc34)cccc12 + CC(=O)c1c(C)c2cnc(Nc3ccc(N4CCNCC4)cn3)nc2n(C2CCCC2)c1=O [Palbociclib] (partner 0.5 µM),relative viability,[1]; first compound 0.01 µM,0.346
same,relative viability,[1]; first compound 0.03162 µM,0.356
same,relative viability,[1]; first compound 0.1 µM,0.356
same,relative viability,[1]; first compound 0.3162 µM,0.342
same,relative viability,[1]; first compound 1 µM,0.353
same,relative viability,[2]; first compound 0.01 µM,0.289
same,relative viability,[2]; first compound 0.03162 µM,0.303
same,relative viability,[2]; first compound 0.1 µM,0.317
same,relative viability,[2]; first compound 0.3162 µM,0.301
same,relative viability,[2]; first compound 1 µM,0.316
same,relative viability,[3]; first compound 0.01 µM,0.302
same,relative viability,[3]; first compound 0.03162 µM,0.31
same,relative viability,[3]; first compound 0.1 µM,0.274
same,relative viability,[3]; first compound 0.3162 µM,0.325
same,relative viability,[3]; first compound 1 µM,0.325
same,relative viability,[4]; first compound 0.01 µM,0.314
same,relative viability,[4]; first compound 0.03162 µM,0.325
same,relative viability,[4]; first compound 0.1 µM,0.306
same,relative viability,[4]; first compound 0.3162 µM,0.314
same,relative viability,[4]; first compound 1 µM,0.312
same,relative viability,[5]; first compound 0.01 µM,0.73
same,relative viability,[5]; first compound 0.03162 µM,0.709
same,relative viability,[5]; first compound 0.1 µM,0.891
same,relative viability,[5]; first compound 0.3162 µM,0.624
same,relative viability,[5]; first compound 1 µM,0.727
same,relative viability,[6]; first compound 0.01 µM,0.525
same,relative viability,[6]; first compound 0.03162 µM,0.527
same,relative viability,[6]; first compound 0.1 µM,0.522
same,relative viability,[6]; first compound 0.3162 µM,0.537
same,relative viability,[6]; first compound 1 µM,0.574
same,relative viability,[7]; first compound 0.01 µM,0.299
same,relative viability,[7]; first compound 0.03162 µM,0.363
same,relative viability,[7]; first compound 0.1 µM,0.346
same,relative viability,[7]; first compound 0.3162 µM,0.368
same,relative viability,[7]; first compound 1 µM,0.317
same,relative viability,[8]; first compound 0.01 µM,0.324
same,relative viability,[8]; first compound 0.03162 µM,0.342
same,relative viability,[8]; first compound 0.1 µM,0.434
same,relative viability,[8]; first compound 0.3162 µM,0.352
same,relative viability,[8]; first compound 1 µM,0.374
same,relative viability,[9]; first compound 0.01 µM,0.299
same,relative viability,[9]; first compound 0.03162 µM,0.295
same,relative viability,[9]; first compound 0.1 µM,0.314
same,relative viability,[9]; first compound 0.3162 µM,0.266
same,relative viability,[9]; first compound 1 µM,0.234
same,relative viability,[10]; first compound 0.01 µM,0.436
same,relative viability,[10]; first compound 0.03162 µM,0.325
same,relative viability,[10]; first compound 0.1 µM,0.462
same,relative viability,[10]; first compound 0.3162 µM,0.337
same,relative viability,[10]; first compound 1 µM,0.346
same,relative viability,[11]; first compound 0.01 µM,0.424
same,relative viability,[11]; first compound 0.03162 µM,0.422
same,relative viability,[11]; first compound 0.1 µM,0.408
same,relative viability,[11]; first compound 0.3162 µM,0.405
same,relative viability,[11]; first compound 1 µM,0.371
same,relative viability,[12]; first compound 0.01 µM,0.365
same,relative viability,[12]; first compound 0.03162 µM,0.414
same,relative viability,[12]; first compound 0.1 µM,0.445
same,relative viability,[12]; first compound 0.3162 µM,0.424
same,relative viability,[12]; first compound 1 µM,0.39
same,relative viability,[13]; first compound 0.01 µM,0.566
same,relative viability,[13]; first compound 0.03162 µM,0.542
same,relative viability,[13]; first compound 0.1 µM,0.531
same,relative viability,[13]; first compound 0.3162 µM,0.513
same,relative viability,[13]; first compound 1 µM,0.527
same,relative viability,[14]; first compound 0.01 µM,0.171
same,relative viability,[14]; first compound 0.03162 µM,0.183
same,relative viability,[14]; first compound 0.1 µM,0.167
same,relative viability,[14]; first compound 0.3162 µM,0.177
same,relative viability,[14]; first compound 1 µM,0.161
same,relative viability,[15]; first compound 0.01 µM,0.484
same,relative viability,[15]; first compound 0.03162 µM,0.472
same,relative viability,[15]; first compound 0.3162 µM,0.462
same,relative viability,[15]; first compound 1 µM,0.45
same,relative viability,[16]; first compound 0.01 µM,0.21
same,relative viability,[16]; first compound 0.03162 µM,0.217
same,relative viability,[16]; first compound 0.1 µM,0.207
same,relative viability,[16]; first compound 0.3162 µM,0.233
same,relative viability,[16]; first compound 1 µM,0.222
same,relative viability,[17]; first compound 0.01 µM,0.238
same,relative viability,[17]; first compound 0.03162 µM,0.224
same,relative viability,[17]; first compound 0.1 µM,0.207
same,relative viability,[17]; first compound 0.3162 µM,0.235
same,relative viability,[17]; first compound 1 µM,0.202
same,relative viability,[18]; first compound 0.01 µM,0.392
same,relative viability,[18]; first compound 0.03162 µM,0.409
same,relative viability,[18]; first compound 0.1 µM,0.387
same,relative viability,[18]; first compound 0.3162 µM,0.364
same,relative viability,[18]; first compound 1 µM,0.314
same,relative viability,[19]; first compound 0.01 µM,0.436
same,relative viability,[19]; first compound 0.03162 µM,0.479
same,relative viability,[19]; first compound 0.1 µM,0.541
same,relative viability,[19]; first compound 0.3162 µM,0.581
same,relative viability,[19]; first compound 1 µM,0.596
same,relative viability,[20]; first compound 0.03162 µM,0.473
same,relative viability,[20]; first compound 0.1 µM,0.567
same,relative viability,[20]; first compound 0.3162 µM,0.507
same,relative viability,[20]; first compound 1 µM,0.517
same,relative viability,[21]; first compound 0.01 µM,0.309
same,relative viability,[21]; first compound 0.03162 µM,0.294
same,relative viability,[21]; first compound 0.1 µM,0.32
same,relative viability,[21]; first compound 0.3162 µM,0.347
same,relative viability,[21]; first compound 1 µM,0.324
